In general, EC50 refers to the midpoint of the concentration-response curve. As usually defined, the IC50 is the point on the concentration scale where inhibition reaches its midpoint. A word on the melting point: it is the temperature, or range, at which the solid turns liquid.

We go through four compounds from article PMC9457600, “Synthesis, Leishmanicidal, Trypanocidal, Antiproliferative Assay and Apoptotic Induction of (2-Phenoxypyridin-3-yl)naphthalene-1(2H)-one Derivatives” (Molecules, 2022).

Data set [1] concerns BMDM macrophages. In words: MTT cytotoxicity on BMDM macrophages. The class given is cell-based. As to conditions: Mus musculus, 72 h. The text has this:
(§1) T. cruzi epimastigotes MHOM/VE/92/YBM venezuelan strain were used to test the anti T. cruzi in vitro studies. The strain was maintained in a modified LIT medium with 10% fetal bovine serum (FBS). Mouse bone marrow was used to obtain BMDM macrophages. Mouse fibroblast-conditioned medium L-929 was used for the differentiation and maintenance of BMDM macrophages. We evaluated through a colorimetric method the effect of compounds 8–23 on the promastigotes of L. brasiliensis. Briefly, 96-well plates were used, where 2 × 10^6 parasites/mL were seeded. A concentration of 50 μM was used for each compound and an incubation time of 96 h at 29 °C. 3-(4,5-dimethylthiazol-2-yl)-2,5-diphenyl tetrazolium bromide (MTT) 1 μg/mL was added and incubated in darkness for 4 h, acidic isopropanol (4N) was added and the plate was read at 570 nm in a spectrophotometer Synergy HT (Biotek). Miltefosine was used as a reference drug. The EC50 calculation of the selected compound was performed using growth curves. Direct counting was used to monitor the proliferation of parasites, three independent experiments were performed for each concentration of the compounds evaluated. The in vitro evaluations of compounds toxicity by MTT in VERO and BMDM cells follow a methodology described above with some modifications. The selectivity index was calculated with SI = CC50/EC50, where CC50 was the maximum concentration range of compounds 10, 21–23 used to evaluate cytotoxicity in VERO and BMDM cells. The trypanocidal activity of compounds 8–23 was evaluated on the viability of T. cruzi epimastigotes through a colorimetric method adapted with minor modifications. 2 × 10^6 parasites/mL were seeded in a 96-well plate, adding 50 μM of each derivative dissolved in DMSO (final concentration remained below 1%). The plate was incubated for 96 h at 29 °C. Then, 1 μg/mL of 3-(4,5-dimethylthiazol-2-yl)-2,5-diphenyl tetrazolium bromide (MTT) was added and incubated in darkness for 4 h. After this time, acidic isopropanol (4N) was added and the plate was read at 570 nm in a spectrophotometer Synergy HT (Biotek). Benznidazole was used as a reference drug. The in vitro evaluations of compounds toxicity by MTT in VERO and BMDM cells follow a methodology described above with some modifications. Cells were counted in suspension and seeded at 20 × 10^3 cells/well. The test was carried out in triplicate on 96-well microplates in different concentrations: 50 μM, 100 μM, 200 μM and 300 μM, untreated cells and reference drug (benznidazole) controls.

Data set [2] concerns epimastigotes of Trypanosoma cruzi strain MHOM/VE/92/YBM. In words: MTT viability of T. cruzi epimastigotes. The data set is classed as cell-based. Particulars: for EC50: 72 h, epimastigotes.
Data set [3] has as its system K562-TAX. Description: MTS antiproliferative assay K562-TAX. The class given is cell-based, human. Particulars: Homo sapiens, K562-Tax, 72 h, 72 h of incubation; paclitaxel-resistant. The text has this:
(§2) The cell lines used were acquired from the American Type Culture Collection (ATCC), CCRF-CEM (T lymphoblastic leukemia), K562 ([…]), U2OS (osteosarcoma), HCT116 (colon carcinoma), A549 (lung adenocarcinoma) and HCT116p53−/− (HCT116 cell line mutated in p53) Horizon Discovery Ltd., (Waterbeach, Cambridge, United Kingdom).
(§3) In our laboratory, IMTM, we generated the daunorubicin-resistant subline of CCRF-CEM cells (CEM-DNR bulk) and paclitaxel-resistant subline K562-TAX, as described previously. […] Both ABC transporters are involved in drug resistance. As a control, human fibroblasts MRC-5 and BJ cell lines were used. […] Adherent cells were passaged using PBS containing 0.25% trypsin plus 0.01% EDTA (ethylenediamine tetraacetic acid) every 2–3 days.
(§4) The antiproliferative activity of compounds was determined using a standard 3-(4,5-dimethylthiazol-2yl)-5-(3-carboxymethoxyphenyl)-2-(4-sulfophenyl)-2H-tetrazolium (MTS) reduction assay on a robotic high throughput screening platform (HighResBio, Boston, MA, USA) following treatment of cells for 3–7 days. The IC50 values were calculated from the appropriate dose–response curves with Dotmatics software (San Diego, CA, USA).
(In general: Tetrazolium assays rely on reduction of a dye to a coloured formazan, in cell work by metabolically active cells.)

Data set [4] relates to BJ. In words: MTS assay on non-malignant BJ. The data set is classed as cell-based. Particulars: noncancerous human cell line. As to the method: as §3, §4
In data set [5] the test system is K562. Description: MTS antiproliferative assay K562. The data set is classed as cell-based, human. As to conditions: Homo sapiens, K562, 72 h, 72 h of incubation.
Description: as §2, §3, §4

For data set [6], the system named is CCRF-CEM. Description: MTS antiproliferative assay CCRF-CEM. The class given is cell-based. Particulars: Homo sapiens, 72 h of incubation.
Description: as §2, §3, §4

In data set [7] the test system is VERO cells. Description: MTT cytotoxicity on VERO cells. The class given is cell-based, African green monkey. Particulars: Chlorocebus sabaeus, 72 h. As to the method: as §1, with “Vero cells” for “T. cruzi epimastigotes MHOM/VE/92/YBM venezuelan strain”, “derived from” for “used to test”, “kidney of an African green monkey, cells were” for “anti T. cruzi in vitro studies. The strain was”, “Dulbecco’s Modified Eagle’s Medium (DMEM), supplemented” for “a modified LIT medium”, “heat-inactivated FBS” for “fetal bovine serum (FBS). Mouse bone marrow was used to obtain BMDM macrophages. Mouse fibroblast-conditioned medium L-929 was used for the differentiation”, “penicillin-streptomycin solution 1% at 37 °C, 5% CO2 atmosphere and > 95% humidity.” for “maintenance of BMDM macrophages.”

For data set [8], the system named is A549. Description: MTS antiproliferative assay A549. The class given is cell-based, human. Particulars: Homo sapiens, A549, 72 h, 72 h of incubation.
Description: as §2, §3, §4

The test system of data set [9] is HCT-116. In words: MTS antiproliferative assay HCT116. The class given is cell-based. Particulars: Homo sapiens, 72 h of incubation.
Description: as §2, §3, §4

In data set [10] the test system is U2OS. Description: MTS antiproliferative assay U2OS. The class given is cell-based. As to conditions: Homo sapiens, 72 h of incubation.
Description: as §2, §3, §4

For data set [11], the system named is MRC-5. Description: MTS assay on non-malignant MRC-5. The class given is cell-based. As to conditions: MRC5; noncancerous human cell line. The protocol: as §3, §4
Data set [12] has as its system CEM-DNR. In words: MTS antiproliferative assay CEM-DNR. The class given is cell-based. Particulars: Homo sapiens, 72 h of incubation, daunorubicin-resistant.
Description: as §2, §3, §4

For data set [13], the system named is promastigotes of Leishmania (V.) braziliensis strain MHOM/CO/87/UA301. Description: MTT viability of L. braziliensis promastigotes. The class given is cell-based.
Description: Promastigotes of Leishmania (V.) braziliensis strain MHOM/CO/87/UA301 were isolated from footpad lesions in Balb/C mice previously infected. In the process of maintenance and differentiation of the parasites, the LTI medium (tryptose 15 g/L, yeast extract 5 g/L, liver extract 2 g/L, hemin-NaOH 0.02 g/L, glucose 4 g/L, NaCl 9 g/L, KCl 0.4 g/L Na2HPO4, 7.5 g/L at pH 7.4) supplemented with 10% fetal calf serum and maintained at 29 °C was used.
Briefly, 96-well plates were used, where 2 × 10^6 parasites/mL were seeded. A concentration of 50 μM was used for each compound and an incubation time of 96 h at 29 °C. 3-(4,5-dimethylthiazol-2-yl)-2,5-diphenyl tetrazolium bromide (MTT) 1 μg/mL was added and incubated in darkness for 4 h, acidic isopropanol (4N) was added and the plate was read at 570 nm in a spectrophotometer Synergy HT (Biotek). Miltefosine was used as a reference drug. The EC50 calculation of the selected compound was performed using growth curves. Direct counting was used to monitor the proliferation of parasites, three independent experiments were performed for each concentration of the compounds evaluated. The in vitro evaluations of compounds toxicity by MTT in VERO and BMDM cells follow a methodology described above with some modifications [60].
The test system of data set [14] is HCT116p53−/−. In words: MTS antiproliferative assay HCT116p53-/-. As to conditions: Homo sapiens; 72 h of incubation. The class given is cell-based.
Description: as §2, §3, §4

`O=C1/C(=C/c2cccnc2Oc2ccc(Cl)cc2)CCc2ccccc21` [Compound 20, (E)-2-{[2-(4-Chlorophenoxy)pyridin-3-yl]methylene}-3,4-dihydronaphthalen-1(2H)-one] displayed a melting point of 130 °C. Also, the concentration for a half-maximal effect (EC50) in data set [1] is over 1000 µM. Besides, in [2] (Trypanosoma cruzi), the concentration giving a half-maximal response (EC50) is under 60 µM. This compound displayed an EC50 in data set [2] of 57.4 ± 3.6 µM. Further, half-maximal inhibition in [3] (IC50) was put at 32.5 ± 2.93 µM. Also, the concentration for half-maximal inhibition (IC50) in [4] was over 50 µM. Besides, the half-maximal inhibitory concentration (IC50) in data set [5] is 23.6 ± 2.55 µM. Moreover, the IC50 in data set [6] was 6.07 ± 0.63 µM. In [7], the half-maximal effective concentration (EC50) is over 1000 µM. In data set [8], this compound came in with a half-maximal inhibitory concentration (IC50) of 37 ± 3.98 µM. Besides, the midpoint of inhibition in [9], the IC50, lay at 26.2 ± 2.4 µM. The half-maximal inhibitory concentration (IC50) in data set [10] stood at 27.9 ± 4.13 µM. Moreover, the IC50 in data set [11] is over 50 µM. The same compound showed an IC50 in [12] of 28.2 ± 4.83 µM. Moreover, in data set [13] (72 h, promastigotes), the EC50 was at least 60 µM. The compound further gave an EC50 in data set [13] (promastigotes, 72 h) of over 60 µM. Moreover, it took 25.6 ± 3.77 µM to reach half-maximal inhibition in data set [14] (IC50).
Compound `COc1ccc2c(c1)C(=O)/C(=C/c1cccnc1Oc1ccccc1)CC2` [Compound 11, (E)-3,4-Dihydro-7-methoxy-2-[(2-phenoxypyridin-3-yl)methylene]naphthalen-1(2H)-one] displayed a melting point of 136 °C. For the same compound, the EC50 in [1] was under 1000 µM. Also, the 50% effective concentration (EC50) in data set [2] (Trypanosoma cruzi) was over 60 µM. The compound also showed an IC50 in data set [3] of over 50 µM. The IC50 in data set [4] was over 50 µM. Moreover, the half-inhibitory concentration (IC50) in [5] was over 50 µM. In data set [6], 8.79 ± 0.76 µM corresponded to half-maximal inhibition (IC50). In addition, the half-maximal effective concentration (EC50) in data set [7] was under 100 µM. In data set [8], this compound had a concentration for half-maximal inhibition (IC50) of over 50 µM. Further, the IC50 in data set [9] was over 50 µM. In [10], this compound showed an IC50 of over 50 µM. This compound also came in with a half-inhibitory concentration (IC50) in [11] of over 50 µM. The half-inhibitory concentration (IC50) in data set [12] came to 45.1 ± 7.9 µM. Besides, the EC50 in data set [13] (72 h, promastigotes) is at least 60 µM. In data set [13] (promastigotes, 72 h), the EC50 is over 60 µM. The compound also registered an IC50 in data set [14] of over 50 µM.
`COc1ccc2c(c1)C(=O)/C(=C/c1cccnc1Oc1ccc(Cl)cc1)CC2` [Compound 23, (E)-2-{[2-(4-Chlorophenoxy)pyridin-3-yl]methylene}-3,4-dihydro-7-methoxynaphthalen-1(2H)-one] came in with a melting point of 160 °C. Also, the EC50 in data set [1] is over 1000 µM. Also, in data set [2] (SI = CC50/EC50), the “SIV/Tc selectivity index on T. cruzi/VERO” value came out at 20 and the “selectivity index T. cruzi vs BMDM (CC50/EC50)” value is over 204. The compound further returned an EC50 in data set [2] (Trypanosoma cruzi) of 4.91 ± 0.98 µM. The same compound showed an IC50 in data set [3] of 16.1 ± 4.44 µM. The IC50 in data set [4] is over 50 µM. Further, the half-inhibitory concentration (IC50) in [5] was over 50 µM. In data set [6], this compound had an IC50 of 15.7 ± 1.54 µM. Further, the concentration giving a half-maximal response (EC50) in [7] is 100 ± 16 µM. The compound further returned an IC50 in [8] of over 50 µM. Further, in [9], the concentration for half-maximal inhibition (IC50) was over 50 µM. Further, the 50% inhibitory concentration (IC50) in data set [10] is over 50 µM. For the same compound, the IC50 in data set [11] is over 50 µM. Further, the IC50 in [12] turned out to be 23.9 ± 4.98 µM. This compound yielded an EC50 in data set [13] (72 h, promastigotes) of 5.69 ± 2.65 µM. Besides, in data set [13] (SI = CC50/EC50), the “SIB/Lb selectivity index on L. braziliensis/BMDM” value turned out to be 176 and the “SIV/Lb selectivity index on L. braziliensis/VERO” value was found to be 18. This compound registered a concentration for half-maximal inhibition (IC50) in [14] of over 50 µM.
Regarding `COc1ccc2c(c1)CC/C(=C\c1cccnc1Oc1ccccc1)C2=O` [Compound 10, (E)-3,4-Dihydro-6-methoxy-2-[(2-phenoxypyridin-3-yl)methylene]naphthalen-1(2H)-one], the melting point was found to be 134 °C. In addition, in [1], the concentration giving a half-maximal response (EC50) was under 1000 µM. The compound further displayed an EC50 in data set [2] (Trypanosoma cruzi) of over 60 µM. The IC50 in [3] worked out at 30.1 ± 7.28 µM. Moreover, in [4], the IC50 is over 50 µM. The same compound came in with an IC50 in [5] of 44.6 ± 3.67 µM. This compound returned an IC50 in data set [6] of 13.2 ± 1.82 µM. The EC50 in data set [7] was determined as 89 ± 15 µM. In data set [8], this compound came in with an IC50 of over 50 µM. Moreover, in data set [9], the half-inhibitory concentration (IC50) is over 50 µM. The half-inhibitory concentration (IC50) in data set [10] is over 50 µM. The compound further displayed a half-inhibitory concentration (IC50) in data set [11] of over 50 µM. For the same compound, the concentration for half-maximal inhibition (IC50) in [12] was 33.7 ± 6.78 µM. For the same compound, the “SIV/Lb selectivity index on L. braziliensis/VERO” value in [13] (SI = CC50/EC50) is given as 4. Also, the IC50 in data set [14] is over 50 µM.
